Data on five compounds can be found in US20090088461A1, “Methods of Treating or Preventing Cardiac Disease Associated With a High Fat Diet” (Synvista Therapeutics, Inc., priority 2007, published 2009).

SMILES strings stand for the structures. Read-outs that look alike come from different tables or passages of the source.

Data set [1] deals with T1, AGE-BSA previously crosslinked to the collagen (Bos taurus, UniProt P02769).
T1 construct: Bovine Serum Albumin (Type V), (BSA) Calbiochem; purchased Calbiochem (BSA Type V); Collaborative Biomedical Products (Biocoat collagen plates)
T1 sequence (P02769 25-607): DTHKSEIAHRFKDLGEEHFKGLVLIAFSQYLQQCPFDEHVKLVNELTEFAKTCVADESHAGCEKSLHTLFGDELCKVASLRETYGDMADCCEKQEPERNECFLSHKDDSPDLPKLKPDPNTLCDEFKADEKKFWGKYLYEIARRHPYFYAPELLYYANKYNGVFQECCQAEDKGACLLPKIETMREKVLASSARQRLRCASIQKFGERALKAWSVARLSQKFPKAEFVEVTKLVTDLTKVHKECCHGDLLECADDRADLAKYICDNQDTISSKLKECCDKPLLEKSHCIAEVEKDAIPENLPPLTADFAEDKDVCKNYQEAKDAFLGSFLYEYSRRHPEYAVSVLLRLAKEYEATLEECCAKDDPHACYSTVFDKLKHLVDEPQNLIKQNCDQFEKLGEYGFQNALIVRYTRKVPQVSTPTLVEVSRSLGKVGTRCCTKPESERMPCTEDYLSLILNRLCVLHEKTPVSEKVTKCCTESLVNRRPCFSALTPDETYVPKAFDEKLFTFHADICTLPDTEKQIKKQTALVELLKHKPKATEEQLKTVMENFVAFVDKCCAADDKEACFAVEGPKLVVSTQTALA
T1 sequence (P02454 152-1207 partner limits assumed): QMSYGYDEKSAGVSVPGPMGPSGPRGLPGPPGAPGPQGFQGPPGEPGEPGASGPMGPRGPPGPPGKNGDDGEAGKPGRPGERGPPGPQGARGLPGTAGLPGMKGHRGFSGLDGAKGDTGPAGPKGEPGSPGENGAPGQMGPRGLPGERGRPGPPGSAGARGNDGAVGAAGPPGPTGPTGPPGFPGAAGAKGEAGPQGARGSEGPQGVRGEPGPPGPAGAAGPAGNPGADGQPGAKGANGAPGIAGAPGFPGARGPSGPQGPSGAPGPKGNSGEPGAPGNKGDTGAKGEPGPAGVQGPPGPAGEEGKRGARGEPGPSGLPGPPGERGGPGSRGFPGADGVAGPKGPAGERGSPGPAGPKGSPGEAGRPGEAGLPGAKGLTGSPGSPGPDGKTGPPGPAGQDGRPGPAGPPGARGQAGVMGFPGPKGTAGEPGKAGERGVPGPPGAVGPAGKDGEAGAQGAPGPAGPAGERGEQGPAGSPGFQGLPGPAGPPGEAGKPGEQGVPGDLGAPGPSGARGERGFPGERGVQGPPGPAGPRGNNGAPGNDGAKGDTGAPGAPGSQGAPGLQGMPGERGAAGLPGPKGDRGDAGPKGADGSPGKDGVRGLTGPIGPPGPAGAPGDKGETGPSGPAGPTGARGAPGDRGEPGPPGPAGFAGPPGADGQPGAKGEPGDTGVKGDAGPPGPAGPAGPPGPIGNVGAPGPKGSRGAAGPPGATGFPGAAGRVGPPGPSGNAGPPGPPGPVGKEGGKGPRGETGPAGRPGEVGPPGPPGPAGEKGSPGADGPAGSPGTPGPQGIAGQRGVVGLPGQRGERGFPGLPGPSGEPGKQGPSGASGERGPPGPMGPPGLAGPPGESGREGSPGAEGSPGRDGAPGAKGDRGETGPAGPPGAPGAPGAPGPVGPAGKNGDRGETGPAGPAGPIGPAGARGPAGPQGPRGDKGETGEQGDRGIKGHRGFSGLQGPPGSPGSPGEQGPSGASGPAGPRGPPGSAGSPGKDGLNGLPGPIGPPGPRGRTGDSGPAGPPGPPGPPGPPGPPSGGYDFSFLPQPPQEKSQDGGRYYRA
T1 sequence (P02466 86-1125 partner limits assumed): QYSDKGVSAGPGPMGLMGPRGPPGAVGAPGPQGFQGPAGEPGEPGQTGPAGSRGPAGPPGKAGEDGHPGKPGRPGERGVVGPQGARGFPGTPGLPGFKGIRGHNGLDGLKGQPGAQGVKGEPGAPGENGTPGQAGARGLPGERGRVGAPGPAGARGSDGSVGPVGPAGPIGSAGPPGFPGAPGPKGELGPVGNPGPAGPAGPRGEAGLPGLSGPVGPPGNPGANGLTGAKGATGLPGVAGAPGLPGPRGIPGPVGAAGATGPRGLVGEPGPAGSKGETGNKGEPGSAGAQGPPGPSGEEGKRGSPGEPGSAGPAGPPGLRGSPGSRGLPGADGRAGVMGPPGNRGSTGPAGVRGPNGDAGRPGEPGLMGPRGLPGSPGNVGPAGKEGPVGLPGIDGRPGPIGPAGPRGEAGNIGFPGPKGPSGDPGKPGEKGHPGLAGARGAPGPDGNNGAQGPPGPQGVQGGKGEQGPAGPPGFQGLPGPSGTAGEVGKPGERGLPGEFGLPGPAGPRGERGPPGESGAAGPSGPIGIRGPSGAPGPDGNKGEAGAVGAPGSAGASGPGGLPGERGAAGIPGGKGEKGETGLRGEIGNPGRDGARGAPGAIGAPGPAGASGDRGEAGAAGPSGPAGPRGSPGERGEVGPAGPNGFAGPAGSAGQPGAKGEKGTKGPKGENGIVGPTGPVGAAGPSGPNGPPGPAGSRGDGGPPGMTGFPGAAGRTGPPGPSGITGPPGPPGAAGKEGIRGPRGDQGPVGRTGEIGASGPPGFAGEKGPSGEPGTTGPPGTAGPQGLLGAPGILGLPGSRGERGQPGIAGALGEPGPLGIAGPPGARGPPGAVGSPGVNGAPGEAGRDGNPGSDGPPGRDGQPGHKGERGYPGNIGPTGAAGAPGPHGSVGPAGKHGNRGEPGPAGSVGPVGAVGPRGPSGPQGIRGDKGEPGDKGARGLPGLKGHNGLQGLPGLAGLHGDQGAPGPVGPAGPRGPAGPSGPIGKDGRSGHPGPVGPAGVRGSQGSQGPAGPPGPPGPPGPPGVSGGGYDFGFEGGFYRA
The experiment in a line: Cross-Link Breaking Assay (sandwich enzyme immunoassay). It is filed as biochemical. Conditions: for Breaking Anti-AGE: anti-AGE antibody; for Breaking Anti-BSA: anti-BSA antibody. As to the method: The present invention also involves a novel sandwich enzyme immunoassay used to ascertain the ability of test compounds to “break” or reverse already formed advanced glycosylation endproducts by detecting the breaking of AGE (Advanced glycosylation endproduct) moieties from AGE-crosslinked protein. This assay comprises:
a) incubation of AGE-modified bovine serum albumin (AGE BSA) on collagen-coated wells of microtiter plates for a period of 2-6 hours' at a temperature of 37° C.
b) washing of the wells with PBS-Tween;
c) application of the test compounds to the washed wells of step b;
d) incubation of the test compounds applied to the washed wells for an additional 12-24 hours at a temperature of about 37° C.; and
e) detection of the AGE-breaking using an antibody raised against AGE-ribonuclease or cross-link breaking with an antibody against BSA.
In order to ascertain the ability of the compounds of the instant invention to “break” or reverse already formed advanced glycosylation endproducts, a novel sandwich enzyme immunoassay was developed which detects breaking of AGE (Advanced glycosylation endproduct) moieties from AGE-crosslinked protein. The assay utilizes collagen-coated 96 well microtiter plates that are obtained commercially. […] Following an incubation period of 16 hours (37° C.) cross-link-breaking is detected using an antibody raised against AGE-ribonuclease or with an antibody against BSA. […] Details of the assay are as follows:
1. AGE-BSA stock solutions were prepared as follows. Sodium phosphate buffer (0.4 M) was prepared by dissolving 6 grams of monobasic sodium phosphate in 100 ml of distilled water, 7 grams of dibasic sodium phosphate (0.4 M) in 100 ml of distilled water and adjusting the pH of the dibasic solution to 7.4 with the monobasic solution. Sodium azide (0.02 grams) was added per 100 ml volume to inhibit bacterial growth. The BSA solution was prepared as follows: 400 mg of Type V BSA (bovine serum albumin) was added for each ml of sodium phosphate buffer (above). A 400 mM glucose solution was prepared by dissolving 7.2 grams of dextrose in 100 ml of sodium phosphate buffer (above). The BSA and glucose solutions were mixed 1:1 and incubated at 37° C. for 12 weeks. The pH of the incubation mixture was monitored weekly and adjusted to pH 7.4 if necessary. After 12 weeks, the AGE-BSA solution was dialyzed against PBS for 48 hours with four buffer changes, each at a 1:500 ratio of solution to dialysis buffer. Protein concentration was determined by the micro-Lowry method. The AGE-BSA stock solution was aliquoted and stored at −20° C.
2. Working solutions for crosslinking and breaking studies were prepared as follows. Test compounds were dissolved in PBS and the pH was adjusted to pH 7.4 if necessary. AGE-BSA stock solution was diluted in PBS to measure maximum crosslinking and in the inhibitor solution for testing inhibitory activity of compounds. The concentration of AGE-BSA necessary to achieve the optimum sensitivity was determined by initial titration of each lot of AGE-BSA.
3. Wash buffer (“PBS-Tween”) was, prepared as follows. PBS was prepared by dissolving the following salts in one liter of distilled water: NaCl, 8 grams; KCl, 0.2 gram, KH2PO4. […] Tween-20 was added to a final concentration of 0.05% (vol/vol).
4. Substrates for detection of secondary antibody binding were prepared by diluting the HRP substrate buffer 1:10 in distilled water and mixing with ABTS chromogen 1:50 just prior to use.
1. Biocoat plates were blocked with 300 μl of “Superbloc”. Plates were blocked for one hour at room temperature and were washed with PBS-Tween three times with the Dynatech platewasher before addition of test reagents.
2. Each experiment was set up in the following manner. The first three wells of the Biocoat plate were used for the reagent blank. Fifty microliters of solutions AGE-BSA were added to test wells in triplicate and only PBS in blank wells.

In data set [2] the test system is IgG crosslinked to circulating red blood cells. The experiment in a line: RBC-IgG assay. Particulars: streptozotocin-induced diabetic rats, dosed orally 10 mg/kg body weight, 19 days. It counts as in vivo. From the text:
2. […] 3. […] 4. […] 5. […] 6. […] 7. […] 8.
10. […] 11. […] 12. […] 13. […] 14. […] 15. […] 16. […] 17.

Data set [3] deals with cross-linking of glycated bovine serum albumin (AGE-BSA) to the rat tail tendon collagen-coated 96-well plate (Bos taurus, UniProt P02769). The data set is described as follows: Cross-Linking Inhibition Assay.
cross-linking of glycated bovine serum albumin (AGE-BSA) to the rat tail tendon collagen-coated 96-well plate, sequence (P02769 25-607): as the sequence (P02769 25-607) above
Experimental: The following method was used to evaluate the ability of the compounds of the present invention to inhibit the cross-linking of glycated bovine serum albumin (AGE-BSA) to the rat tail tendon collagen-coated 96-well plate.
The blocking solution was removed from the wells by, washing the plate twice with PBS-'Tween 20 solution (0.05% Tween 20) using a NUNq-multiprobe or Dynatech ELISA-plate washer. Cross-linking of AGE-BSA (1 to 10 mg per well depending on the batch of AGE-BSA) to rat tail tendon collagen coated plate was performed with and without the testing ‘compound dissolved in PBS buffer at pH 7.4 at the desired concentrations by the, addition of 50 μl each of the AGE-BSA diluted in PBS or in the solution of test compound at 37° C. for 4 hours.
Unbrowned BSA in PBS buffer with or without testing compound were added to the separate wells as the blanks. The un-cross-linked AGE-BSA was then removed by washing the wells three times with PBS-Tween buffer. The amount of AGE-BSA cross-linked to the tail tendon collagen-coated plate was then quantitated using a polyclonal antibody raised against AGE-RNase. After a one-hour incubation period, AGE antibody was removed by washing 4 times with PBS-Tween.
The bound AGE antibody was then detected with the addition of horseradish peroxidase-conjugated secondary antibody—goat anti-rabbit immunoglobulin and incubation for 30 minutes. […] The reaction was allowed for an additional 15 minutes and the absorbance was read at 410 nm in a Dynatech plate reader.
Data set [4] is described as follows: Reaction with 1-phenyl-1,2-propanedione.
For data set [5], the target named is AGE-crosslinks that form when AGE-modified BSA (AGE-BSA) is allowed to react with unmodified, native collagen (Bos taurus, UniProt P02769). The data set is described as follows: Release of BSA from pre-formed AGE-BSA/collagen complexes. It is filed as biochemical. An excerpt: Once early, addition products form on proteins, further reactions can ensue to effect a covalent, protein-protein crosslinking reaction. In this regard, a compound of the formula I, N-phenacylthiazolium bromide, was allowed to react with the AGE-crosslinks that form when AGE-modified BSA (AGE-BSA) is allowed to react with unmodified, native collagen. […] Again, this confirmed that a significant portion of the AGE-crosslinks that form under experimental conditions consist of an α-diketone or related structure that is susceptible to cleavage by the advantageous bidentate-type molecules of the compounds of formula I under physiological conditions.
AGE-crosslinks that form when AGE-modified BSA (AGE-BSA) is allowed to react with unmodified, native collagen, sequence (P02769 25-607): as above

Consider `Cc1c(CCO)sc[n+]1CC(=O)c1ccc2ccccc2c1.[Br-]` [3-(2-(2′-naphthyl)-2-oxoethyl]-4-methyl-5-(2′-hydroxyethyl)-thiazolium bromide], for which, in data set [1] (at 10 mM), the “Breaking Anti-AGE” value came to 52% and the “Breaking Anti-BSA” value was found to be 61%. Further, in data set [2], the “Percent Inhibition (percent breaking of RBC-IgG)” value (“Percent Inhibition” below) is recorded as 40 ± 24 @ 19 days %. In addition, the “Relative Cross-link Inhibition (at 10 mM)” value in data set [3] (at 10 mM) stood at 61%.

For `C=Cc1sc[n+](CC(=O)c2ccccc2)c1C.[Br-]` [3-(2-phenyl-2-oxoethyl)-4-methyl-5-vinyl-thiazolium bromide], in data set [1] (at 1 mM), the “Breaking Anti-AGE” value was found to be 62% and the “Breaking Anti-BSA” value is recorded as 82%. The IC50 in data set [1] (detection with anti-BSA antibody, read-out: IC50 (mM) Anti-BSA) stood at 0.1 mM. In data set [2], the “Percent Inhibition” value is recorded as 58 ± 21 ® 19 days %.

Take `O=C(C[n+]1ccsc1)c1ccccc1.[Br-]` [3-(2-phenyl-2-oxoethyl)thiazolium bromide]: in data set [1] (concentration not given), the “Breaking Anti-AGE” value stood at 73% and the “Breaking Anti-BSA” value was determined as 98%. Besides, the “reaction with 1-phenyl-1,2-propanedione to produce benzoic acid” value in data set [4] is “rapid and readily proceeded”. In addition, the “release of BSA from the pre-formed AGE-mediated complexes” value in data set [5] is on record as “concentration-dependent release of BSA”. In data set [3], this compound came in with an IC50 of 11100 µM. Further, the inhibition at 10000 µM in data set [3] (read-out: Relative Cross-link Inhibition (at 10 mM)) was 34%.

On to `Cc1c[n+](CC(=O)c2cc(C(C)(C)C)c(O)c(C(C)(C)C)c2)cs1` [3-[2-(3′,5′-di-tert-butyl-4′-hydroxyphenyl)-2-oxoethyl)-5-methyl-thiazolium bromide], for which the “Breaking Anti-AGE” value in data set [1] (at 1 mM) is reported as 65%; in data set [1] (at 10 mM), 48%. Moreover, the “Breaking Anti-BSA” value was found to be 69% in data set [1] (at 1 mM) and 49% in data set [1] (at 10 mM). Moreover, the IC50 was 3 mM in data set [1] (detection with anti-AGE antibody, read-out: IC50 (mM) Anti-AGE) and 780 µM in data set [3]. Further, the “Percent Inhibition” value in data set [2] is on record as 65 ± 15 @ 19 days %. The inhibition at 1000 µM in data set [3] (read-out: Relative Cross-link Inhibition) is 69%.

As to `Cc1c(CCOCc2c(Cl)cccc2Cl)sc[n+]1N.Cc1cc(C)c(S(=O)(=O)[O-])c(C)c1` [3-amino-4-methyl-5-(2(2′,6′-dichlorobenzyloxy)ethyl]-thiazolium mesitylenesulfonate], in data set [1] (at 10 mM), the “Breaking Anti-AGE” value came out at 31% and the “Breaking Anti-BSA” value is reported as 54%. Moreover, the “Relative Cross-link Inhibition” value in data set [3] (3 mM) is 26.5% (3 mm).

What is called IC50 is the concentration that gives 50% inhibition. As a reminder, the inhibition is how much of the control response was suppressed.
